Legend:
[1] = target: human recombinant β2 adrenergic receptor (Homo sapiens, UniProt P07550); experiment: β2 adrenergic receptor inhibition assay; assay type: binding; details: read-out: β2 adrenergic % inh @1 μM
Protocol: (§1) hEGR study and the M2 and the β2 receptor inhibition assay were performed as previously reported.
(§2) The new G-quadruplex ligands were designed in an attempt to obtain molecules with improved toxicological and on-target profiles, but maintaining the same favorable chemical and pharmacological features of the lead compound 1. With the aim of selecting the best variants, a step by step comparative analysis of their off- and on-target properties was performed. Initially the new molecules were tested for their ability to interact with and inhibit the human recombinant β2 adrenergic and M2 muscarinic receptors, and to reduce the hERG tail current in a patch clamp assay. […] Therefore, we might expect that the new ligands would impair cardiac functionality to a lesser extent than the lead molecule does.

hERG = hERG (Homo sapiens, UniProt Q12809); experiment: hERG tail current inhibition in a patch clamp assay; assay type: cell-based; details: read-out: hERG % inh @10 μM
Protocol: as §1, §2

[2] = system: alternating hairpin duplex sequence 5'-biotin-CGA3T3C(CT)2GA3T3CG; experiment: SPR binding to duplex DNA
Protocol: (§3) Oligonucleotides 5’-biotin-d [AG3 (T2AG3)3] quadruplex and 5’-biotin-CGA3T3C(CT)2GA3T3CG were purchased from Midland Certified Reagent Company (Midland, TX). Purification of DNA, preparation of solutions, collection of data, and analysis of results were conducted according to methods adopted in an earlier study.
(§4) This technique takes advantage of the refractive index change elicits by the binding of the drug with the h-Tel quadruplex DNA sequence 5’-d[AGGG(TTAGGG)3]-3’ or an alternating hairpin duplex sequence immobilized on a sensor chip surface.

[3] = target: T1, human recombinant M2 muscarinic receptor (Homo sapiens, UniProt P08172); experiment: M2 muscarinic receptor inhibition assay; assay type: binding; details: read-out: Muscarinic (M2) % inh @1 μM
T1 sequence (P08172 1-466): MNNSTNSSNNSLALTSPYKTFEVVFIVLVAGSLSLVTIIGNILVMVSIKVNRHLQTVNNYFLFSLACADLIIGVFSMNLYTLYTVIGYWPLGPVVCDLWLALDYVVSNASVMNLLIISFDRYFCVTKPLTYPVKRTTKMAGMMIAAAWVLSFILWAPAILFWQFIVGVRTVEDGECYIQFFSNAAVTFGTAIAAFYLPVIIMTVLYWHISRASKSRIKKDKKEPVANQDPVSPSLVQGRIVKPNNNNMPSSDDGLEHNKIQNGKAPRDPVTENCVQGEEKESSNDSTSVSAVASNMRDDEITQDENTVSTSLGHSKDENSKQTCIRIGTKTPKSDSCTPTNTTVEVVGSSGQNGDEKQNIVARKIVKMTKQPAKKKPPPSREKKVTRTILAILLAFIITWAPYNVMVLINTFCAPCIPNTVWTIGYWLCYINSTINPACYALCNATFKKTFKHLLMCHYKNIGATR
Protocol: as §1, §2

[4] = system: human 'normal' lung WI-38 cells; experiment: MTT proliferation assay, WI-38; assay type: cell-based; details: for Ratio PMX WI38/HT29: GI50 WI-38 / GI50 HT-29; for GI50: Homo sapiens, WI-38, MTT, 96 hours
Protocol: (§5) Normal WI-38 diploid human lung fibroblasts and the human colorectal adenocarcinoma HT29 cells were obtained from American Type Culture Collection (Manassas, VA, USA). BJ fibroblasts expressing hTERT and SV40 early region (BJ-EHLT) were obtained as previously reported. Cells were grown in Dulbecco Modified Eagle Medium (D-MEM, Invitrogen Carlsbad, CA, USA) supplemented with 10% fetal calf serum, 2 mM L-glutamin and antibiotics.
(§6) MTT (3-(4,5-Dimethylthiazol-2-yl)-2,5-diphenyltetrazolium Bromide) assay was performed in treated and untreated cells for 96 hours. Cells were incubated with MTT solution (Sigma-Aldrich), and the purple formazan crystals were dissolved in isopropanol. Optical densities (OD) at 540 nm was determined on microplate reader.
(§7) Firstly, we investigated if they were able to efficiently promote growth inhibition of tumor cells without affecting the survival of normal cells in vitro. In Table 1 we report for each compound the concentration causing 50% of growth inhibition (GI50) calculated by performing a proliferation assay in the human colon cancer cell line HT-29 or in the human ‘normal’ lung WI-38 cells. […] On the basis of results described so far, we decided to exclude from the further analysis ligand 10 for its high value of hERG inhibition (95%) (Table 1).

[5] = system: h-Tel quadruplex DNA, 5'-biotin-d[AG3(T2AG3)3] (DNA, G4) AGGGTTAGGGTTAGGGTTAGGG; experiment: SPR
[6] = system: human colon cancer cell line HT-29; experiment: MTT proliferation assay, HT-29; assay type: cell-based; details: 96 hours
Protocol: as §5, §6, §7

[7] = system: h-Tel quadruplex DNA sequence 5'-d[AGGG(TTAGGG)3]-3'; experiment: SPR binding to quadruplex DNA; parameters: species or system human; details: for Quadruplex/duplex ratio: quadruplex vs duplex affinity
Protocol: as §3, §4

[8] = system: hairpin duplex, 5'-biotin-CGA3T3C(CT)2GA3T3CG (DNA, hairpin) CGAAATTTCCTCTGAAATTTCG; experiment: SPR
BJ-EHLT fibroblasts = experiment: γ-H2AX/TRF1 colocalization (TIFs, telomere uncapping); assay type: cell-based, human; details: for telomere dysfunction (TIF formation), in words: 0.1 and 0.5 μM
Protocol: Cells were fixed in 2% formaldehyde and permeabilized in 0.25% Triton X100 in PBS for 5 min at room temperature. For immunolabeling, cells were incubated with primary antibody, then washed in PBS and incubated with the secondary antibodies. The following primary antibodies were used: pAb and mAb anti-TRF1(Abcam Ltd.; Cambridge UK); mAb (Upstate, Lake Placid, NY) and pAb anti-γH2AX (Abcam); mAb anti-PCNA (Sigma Chemicals, Milano, Italy). The following secondary antibody were used: TRITC conjugated Goat anti Rabbit, FITC conjugated Goat anti Mouse (Jackson ImmunoResearch Europe Ltd., Suffolk, UK). Fluorescence signals were recorded by using a Leica DMIRE2 microscope equipped with a Leica DFC 350FX camera and elaborated by a Leica FW4000 deconvolution software (Leica, Solms, Germany). This system permits to focus single planes inside the cell generating 3D highresolution images. For quantitative analysis of γH2AX positivity, 200 cells on triplicate slices were scored. For TIFs analysis, in each nucleus a single plane was analyzed and at least 50 nuclei per sample were scored.
Unfortunately, we were not able to test compounds 4, 5 and the 0,5 μM dose of 3 as they were fluorescent in both red and green channels. […] To ascertain whether γ-H2AX was phosphorylated in response to dysfunctional telomeres, double immunofluorescence experiments were processed by confocal microscopy. We observed that some of the γ-H2AX foci induced by G4-ligands colocalized with TRF1, a good marker for interphase telomeres, forming the so-called telomere dysfunction-induced foci (TIFs) (Figure 2B).
Figure 2 DNA damage activation at telomeres. BJ-EHLT fibroblasts were treated for 24 hrs with compound 1 and the indicated ligands at the doses 0.1 (light-grey bars) and 0.5 μM (dark-grey bars). Cells were processed for immunofluorescence (IF) using antibodies against γ-H2AX and TRF1 to mark DNA damage and telomeres respectively. Percentages of γ-H2AX- (A) and TIF-positive (B) treated and untreated cells are reported in the histograms. (C) Mean number of TIFs in the indicated samples. Cells with four or more γ-H2AX/TRF1 foci were scored as TIF positive. Error bars indicate the standard deviation. (D) Representative images of IF of untreated and 1, 3, 6 and 8-treated BJ-EHLT cells. Enlarged views of TIFs are reported on the right of the merged images. The images were acquired with a Leica Deconvolution microscope (magnification 100x). (E) Cells treated as in (A) were processed for IF of γ-H2AX and PCNA to mark replicating cells. Percentage of γ-H2AX+/PCNA- or γ-H2AX+/PCNA + nuclei in the indicated samples are reported in the histograms.

Sequence of hERG (Q12809 whole entry): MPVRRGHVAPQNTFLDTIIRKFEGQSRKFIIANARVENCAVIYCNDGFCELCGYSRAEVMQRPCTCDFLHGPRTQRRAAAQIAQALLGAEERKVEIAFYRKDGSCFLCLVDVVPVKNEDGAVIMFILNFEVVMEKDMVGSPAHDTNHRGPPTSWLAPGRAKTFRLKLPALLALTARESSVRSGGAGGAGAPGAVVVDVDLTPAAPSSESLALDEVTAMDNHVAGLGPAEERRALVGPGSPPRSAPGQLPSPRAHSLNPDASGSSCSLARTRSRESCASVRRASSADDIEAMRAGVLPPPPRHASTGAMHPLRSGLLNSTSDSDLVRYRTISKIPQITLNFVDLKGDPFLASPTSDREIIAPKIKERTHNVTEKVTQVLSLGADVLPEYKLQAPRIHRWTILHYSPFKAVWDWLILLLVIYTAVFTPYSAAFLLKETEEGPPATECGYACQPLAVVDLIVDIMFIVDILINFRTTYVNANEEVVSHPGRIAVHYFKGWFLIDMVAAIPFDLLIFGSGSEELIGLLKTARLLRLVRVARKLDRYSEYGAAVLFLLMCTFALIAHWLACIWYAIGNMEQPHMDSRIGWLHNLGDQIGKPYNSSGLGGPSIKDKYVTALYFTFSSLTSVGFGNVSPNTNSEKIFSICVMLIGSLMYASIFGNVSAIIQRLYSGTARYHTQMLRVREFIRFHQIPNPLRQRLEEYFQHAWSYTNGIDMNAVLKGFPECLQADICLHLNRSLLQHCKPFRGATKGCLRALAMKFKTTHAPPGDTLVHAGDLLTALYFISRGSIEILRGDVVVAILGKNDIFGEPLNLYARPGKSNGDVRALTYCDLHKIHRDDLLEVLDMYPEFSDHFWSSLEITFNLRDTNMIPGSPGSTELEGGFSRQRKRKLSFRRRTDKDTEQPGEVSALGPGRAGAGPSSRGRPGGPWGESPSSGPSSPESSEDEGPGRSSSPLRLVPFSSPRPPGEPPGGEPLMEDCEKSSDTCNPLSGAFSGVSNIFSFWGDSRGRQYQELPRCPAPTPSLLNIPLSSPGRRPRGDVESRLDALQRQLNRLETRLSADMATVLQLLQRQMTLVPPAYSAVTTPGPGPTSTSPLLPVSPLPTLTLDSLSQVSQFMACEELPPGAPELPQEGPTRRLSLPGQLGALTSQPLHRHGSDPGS
Sequence of human recombinant β2 adrenergic receptor (P07550 whole entry): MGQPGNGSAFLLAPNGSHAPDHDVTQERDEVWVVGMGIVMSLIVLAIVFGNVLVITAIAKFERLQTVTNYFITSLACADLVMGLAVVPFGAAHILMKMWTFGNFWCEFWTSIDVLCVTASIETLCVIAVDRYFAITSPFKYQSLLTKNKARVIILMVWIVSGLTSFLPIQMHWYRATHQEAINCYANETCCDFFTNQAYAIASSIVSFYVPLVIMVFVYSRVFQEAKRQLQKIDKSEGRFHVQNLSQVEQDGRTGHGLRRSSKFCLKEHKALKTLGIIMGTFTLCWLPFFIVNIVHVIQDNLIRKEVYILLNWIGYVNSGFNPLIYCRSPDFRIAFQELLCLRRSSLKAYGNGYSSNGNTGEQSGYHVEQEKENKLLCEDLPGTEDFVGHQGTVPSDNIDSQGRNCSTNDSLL

| Compound | inhibition at 1 µM [1] | inhibition at 10 µM (hERG) | Duplex DNA affinity K [2] | inhibition at 1 µM [3] | Ratio PMX WI38/HT29 [4] | GI50 [4] | K [5] | GI50 [6] | Quadruplex DNA affinity K [7] | Quadruplex/duplex ratio [7] | K [8] | telomere dysfunction (TIF formation), in words (BJ-EHLT fibroblasts; 24 hrs) | mean TIFs per nucleus (BJ-EHLT fibroblasts; 24 hrs) | percentage of cells with more than four γ-H2AX/TRF1 colocalizations (TIF-positive) (BJ-EHLT fibroblasts; 24 hrs, 0,5 μM) |
| --- | --- | --- | --- | --- | --- | --- | --- | --- | --- | --- | --- | --- | --- | --- |
| CN1c2ccccc2-c2c3c1cccc3c1ccc(CN)cc1[n+]2C [Compound 4] | 1% | 15% | 1,1 x10^6 M^−1 | 65% | 10,6 | 17.3 µM | 7.4e+06 M⁻¹ | 1.63 µM | 7.4e+06 M⁻¹ | 6,7 | 1.1e+06 M⁻¹ | – | – | – |
| CN1c2ccccc2-c2c3c1cccc3c1ccc(NC(=O)CCS(C)=O)cc1[n+]2C (stereo not shown) | – | – | – | – | – | – | 2.3e+07 M⁻¹ | – | – | – | < 100000 M⁻¹ | – | – | – |
| CN(C)CC#Cc1ccc2c3cccc4c3c([n+](C)c2c1)-c1ccccc1N4C [Compound 7] | 0% | 37% | 0,9 x10^6 M^−1 | 92% | 33,4 | 9.36 µM | 2.93e+07 M⁻¹ | 0.28 µM | 29,3 x10^6 M^−1 | 32,6 | 900000 M⁻¹ | did not cause significant telomere dysfunction | – | – |
| CN1c2ccccc2-c2c3c1cccc3c1ccc(NC(=O)CC[S+](C)[O-])cc1[n+]2C (stereo not shown) [Compound 5] | 10% | 16% | <0,1 x10^6 M^−1 | 93% | – | > 30 µM | – | 1.83 µM | 2.3e+07 M⁻¹ | >230 | – | – | – | – |
| CN1c2ccccc2-c2c3c1cccc3c1ccc(NC(=O)CO)cc1[n+]2C [Compound 6] | 8% | 35% | 0,7 x10^6 M^−1 | 77% | 85,7 | 22.3 µM | 1.47e+07 M⁻¹ | 0.26 µM | 14,7 x10^6 M^−1 | 21 | 700000 M⁻¹ | – | about seven | ~40% |
| C[n+]1c2c3c(cccc3c3ccccc31)Sc1ccccc1-2 [Compound 10] | – | 95% | <0,1 x10^6 M^−1 | 49% | 47,5 | 6.17 µM | 1e+06 M⁻¹ | 0.13 µM | 1,0 x10^6 M^−1 | >10 | < 100000 M⁻¹ | – | – | – |
| C[n+]1c2c3c(cccc3c3ccccc31)Oc1ccccc1-2 [Compound 9] | – | 86% | <0,1 x10^6 M^−1 | 24% | 24,3 | 5.11 µM | 1.5e+06 M⁻¹ | 0.21 µM | 1,5 x10^6 M^−1 | >15 | < 100000 M⁻¹ | did not cause significant telomere dysfunction | – | – |
| COC(=O)c1ccc2c(c1)c1cccc3c1c([n+]2C)-c1ccccc1N3C [Compound 2] | 11% | 41% | 0,2 x10^6 M^−1 | 98% | 31,1 | 3.11 µM | 4.2e+06 M⁻¹ | 0.1 µM | 4.2e+06 M⁻¹ | 21 | 200000 M⁻¹ | did not cause significant telomere dysfunction | – | – |
